We go through two compounds from patent US20080090893A1, “Medicinal Composition for Prevention of Transition to Operative Treatment for Prostatic Hypertrophy” (Kissei Pharmaceutial Co., Ltd., priority 2004, published 2008).

For experiment [1], the system named is patients of benign prostatic hyperplasia who are subject to surgical therapy (overall severity severe). Briefly: Placebo-controlled, parallel groups-comparing double blind trial, 12 weeks oral administration (I-PSS total score, QOL score). The experiment is classed as in vivo. How it is done:
Based on the results of a placebo-controlled, parallel groups-comparing double blind trial carried out in patients of benign prostatic hyperplasia, clinical effects of silodosin and tamsulosin hydrochloride in patients who are subject to surgical therapy were evaluated. As the patients who are subject to surgical therapy, patients whose overall severity before administration was “severe” based on the criteria for judging overall severity (Non-patent Reference 3) were extracted.
Objects: 147 patients who are subject to surgical therapy for benign prostatic hyperplasia
Administration method: oral administration for 12 weeks
Administered groups: Silodosin group (4 mg silodosin/once, twice a day, 63 patients), Tamsulosin group (0.2 mg tamsulosin hydrochloride, once a day, 55 patients) and Placebo group (placebo drug, 29 patients).
Primary endpoints: I-PSS total score, QOL score
Criteria for judging overall severity: in the severity of respective judging items shown in Table 1, the overall severity is regarded as “severe” when “severe” is present in 2 items or more. In this connection, the Qmax in the table means maximum flow rate (mL/second), RU means residual urine volume (mL) and PV means estimated prostate volume (mL) by ultrasonic tomography.
I-PSS items questioned • (1) Sensation of residual urine
The scores of (1) to (6) are as follows.
Not at all: 0 point, less than 1 time in 5: 1 point, less than 1 time in 2: 2 points, about 1 time in 2: 3 points, more than 1 time in 2: 4 points, almost always: 5 points. • (7) Nocturia
None: 0 point, 1 time: 1 point, 2 times: 2 points, 3 times: 3 points, 4 times: 4 points, 5 times or more: 5 points.
Very satisfied 0 point, satisfied: 1 point, generally satisfied: 2 points, neither satisfied nor unsatisfied: 3 points, a little unsatisfied: 4 points, unsatisfied: 5 points, very unsatisfied: 6 points.
Regarding the case of patients whose overall severity before administration was severe based on the criteria for judging overall severity (Non-patent Reference 3), changes in I-PSS total score and QOL score at the final evaluation were compared. The results are shown in Table 2 and Table 3, respectively.
Next, the effect of each administration group to improve the severity of I-PSS total score was evaluated in the patients of benign prostatic hyperplasia whose overall severity before administration was severe.

The test system of experiment [2] is patients of benign prostatic hyperplasia who are subject to surgical therapy (overall severity moderate and severe). The experiment is described as follows: Long-term administration test, 52 weeks (maximum flow rate Qmax). The experiment is classed as in vivo. Conditions: 4 mg silodosin twice a day oral. An excerpt:
Based on the results from a long-term administration test in patients of benign prostatic hyperplasia, effects of silodosin on objective symptoms of patients who are subject to surgical therapy were examined. As the patients who are subject to surgical therapy, patients whose overall severities before administration were “moderate” and “severe” according to the criteria for judging overall severity described in the above Table 1 were extracted.
Objects: 229 patients who are subject to surgical therapy for benign prostatic, hyperplasia
Analyzed groups: 101 severe patients (reduced to 2 mg/once in 9 cases among them), 128 moderate patients (reduced to 2 mg/once in 17 cases among them)

The mark [3] stands for this setting: severity of I-PSS total score, severe patients.
Setting [4] is: overall severity before administration severe, oral, silodosin 4 mg twice a day, tamsulosin hydrochloride 0.2 mg once a day.

Where a name gives a salt, the structure may show the parent alone.

On to `C[C@H](Cc1cc2c(c(C(N)=O)c1)N(CCCO)CC2)NCCOc1ccccc1OCC(F)(F)F` [Silodosin, (−)-1-(3-hydroxypropyl)-5-((2R)-2-{[2-({2-[(2,2,2-trifluoroethyl)oxy]phenyl}oxy)ethyl]amino}propyl)-2,3-dihydro-1H-indole-7-carboxamide], for which, in experiment [1] (setting [3]), the “Severity of subjective symptoms at the end, Mild (0-7), number of patients” value worked out at 24; the “Severity of subjective symptoms at the end, Moderate (8-19), % of patients” value was “(52.4%)”; the “Severity of subjective symptoms at the end, Moderate (8-19), number of patients” value stood at 33; the “Severity of subjective symptoms at the end, Severe (20-35), % of patients” value is recorded as “(9.5%)”. For the same compound, the “Severity of subjective symptoms at the end, Severe (20-35), number of patients” value in experiment [1] (setting [3]) was 6. In addition, the “Maximum flow rate (Qmax), change after 52 weeks (mean ± SD)” value in experiment [2] (Moderate group) was determined as 2.3 ± 5.3 mL/s. Further, the “Maximum flow rate (Qmax), change after 52 weeks (mean ± SD)” value in experiment [2] (Moderate group, listed as silodosin) amounted to 2.3 mL/s. Also, the “Maximum flow rate (Qmax), change after 52 weeks (mean ± SD)” value in experiment [2] (Severe group) was 3.2 ± 4.9 mL/s. The “Maximum flow rate (Qmax), change after 52 weeks (mean ± SD)” value in experiment [2] (Severe group, listed as silodosin) worked out at 3.2 mL/s.

`CCOc1ccccc1OCCN[C@H](C)Cc1ccc(OC)c(S(N)(=O)=O)c1` [Tamsulosin, tamsulosin hydrochloride]: in experiment [1] (setting [4]), the “Change in I-PSS at the end Mean ± standard deviation” value is on record as −8.6 ± 6.2^3) N.S and the “Change in QOL at the end Mean ± SD” value is −1.5 ± 1.3^3) N.S. In experiment [1] (setting [3]), the “Severity of subjective symptoms at the end, Mild (0-7), % of patients” value was “(21.8%)”; the “Severity of subjective symptoms at the end, Mild (0-7), number of patients” value was found to be 12; the “Severity of subjective symptoms at the end, Moderate (8-19), % of patients” value was “(61.8%)”; the “Severity of subjective symptoms at the end, Moderate (8-19), number of patients” value was 34. In experiment [1] (setting [3]), the “Severity of subjective symptoms at the end, Severe (20-35), % of patients” value was “(16.4%)” and the “Severity of subjective symptoms at the end, Severe (20-35), number of patients” value turned out to be 9.
